Results: patent US10023557B2 (LifeSci Pharmaceuticals, Inc., priority 2015, dated 2018)

Experiments:
[1] = target: human plasma kallikrein (Homo sapiens (Human), UniProt P03952); assay: In vitro enzyme inhibition of human plasma kallikrein (PFR-AMC cleavage); assay type: biochemical; settings: Pro-Phe-Arg-AMC substrate, 37° C., read-out: hPK IC50
How it was run: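 Human plasma kallikrein and compound, diluted in 50 mM Tris-HCl pH 7.5, 150 mM NaCl, 0.01% Triton X-100, preincubated 5 min at 37 °C before PFR-AMC was added.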

[2] = target: cellular kallikrein activity (Homo sapiens (Human), UniProt P03952); assay: In vitro cellular assay (contact assay): kallikrein activity in ellagic acid-activated human plasma, Z-FR-2-AMC substrate; assay type: biochemical; settings: human plasma activated with ellagic acid, 37° C.
Description: The ability of the compounds disclosed herein to inhibit cellular kallikrein activity was quantified and the respective EC50 value was determined.
All dilutions were prepared in an assay buffer comprising 50 mM Tris-HCl pH 7.2, 150 mM NaCl, and 0.01% Triton X-100.
The ten solutions of the test compounds, prepared by serial dilution, were further diluted 50-fold in the assay buffer.
Human plasma is thawed on ice and centrifuged for 15 min at 4° C. to remove platelets. A 1 mM stock solution of ellagic acid is diluted to 8 μM and mixed with human plasma, after removing platelets, at a ratio of 1:0.8.
A 22.5 μL volume of the final mixture of human plasma and ellagic acid was added to a 96-well microwell plate and the plate was incubated for 15 min at 37° C.
The CINH inhibitor at various concentrations, prepared by serial dilutions as described above, were added to the inhibitor control wells. […] Each CINH concentration is tested in duplicates.
The test compounds at various concentrations, also prepared by serial dilutions as described above, are added to the test wells. […] Each test compound concentration was tested in duplicates.
In addition to the inhibitor control and test wells, the 96 well assay plate includes positive control wells which contained the mixture of human plasma and ellagic acid without C1NH inhibitor or test compounds, and background wells which contained neither the mixture of human plasma and ellagic acid nor the test compounds. The total volume of liquid in positive control and background wells was brought up to 35 μL, using the assay buffer.
The assay plate containing C1NH inhibitors and test compounds mixed with human plasma and ellagic acid and appropriate controls was incubated at 37° C. for 5 min. […] The reagents were mixed well by shaking the plate gently for 30 sec.
The enzyme reaction was quantified by immediate kinetic reading of the assay plate using excitation/emission wavelengths of 330 nm/440 nm respectively. Fluorescence intensity was recorded for 60 min, using a time interval of 43 sec.
The inhibition activity of the test compounds were evaluated using the EC50 values, calculated according to the dose-response curve of the test compounds, fitted using the “log(inhibitor)−response (variable slope)” equation in GraphPadPrism software (GraphPad Software, Inc.).
The percentage inhibition was calculated using the following equation:
[formula] where, Mean (BG) is the average value of the fluorescence intensity of the background wells and Mean (PC) is the average value of the fluorescence intensity of the positive control wells.
Table 4 provides the EC50 values of various compounds disclosed herein.

cellular kallikrein activity, sequence (P03952 391-638): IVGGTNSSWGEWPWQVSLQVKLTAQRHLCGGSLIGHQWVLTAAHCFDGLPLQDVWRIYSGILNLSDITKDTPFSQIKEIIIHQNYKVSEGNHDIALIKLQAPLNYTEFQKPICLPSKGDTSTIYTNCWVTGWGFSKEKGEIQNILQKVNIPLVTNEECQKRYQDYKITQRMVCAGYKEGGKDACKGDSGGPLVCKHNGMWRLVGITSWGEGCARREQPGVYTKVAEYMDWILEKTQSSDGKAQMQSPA
cellular kallikrein activity, sequence (P03952 20-390 partner): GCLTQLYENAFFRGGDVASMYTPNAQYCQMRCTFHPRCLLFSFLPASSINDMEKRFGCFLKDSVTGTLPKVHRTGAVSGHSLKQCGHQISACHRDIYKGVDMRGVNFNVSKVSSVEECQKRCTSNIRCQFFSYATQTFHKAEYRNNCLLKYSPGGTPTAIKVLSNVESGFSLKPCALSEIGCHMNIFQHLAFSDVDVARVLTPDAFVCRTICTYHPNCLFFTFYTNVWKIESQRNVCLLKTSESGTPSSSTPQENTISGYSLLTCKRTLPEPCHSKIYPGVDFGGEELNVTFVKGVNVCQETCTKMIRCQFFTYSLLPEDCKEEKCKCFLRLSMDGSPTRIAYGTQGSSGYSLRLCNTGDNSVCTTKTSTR
human plasma kallikrein, sequence (P03952 391-638): as the sequence (P03952 391-638) above
human plasma kallikrein, sequence (P03952 20-390 partner): as the sequence (P03952 20-390 partner) above

IC50 [1] | EC50 [2] | SMILES
< 100 nM | < 100 nM | Nc1nccc2cc(CNC(=O)c3ccnc(Cc4ccc5ncc(C(F)(F)F)cc5c4)c3)ccc12 [Example 232, N-((1-aminoisoquinolin-6-yl)methyl)-2-((3-(trifluoromethyl)quinolin-6-yl)methyl)isonicotinamide]
< 100 nM | < 100 nM | Cc1cc(N)nc(C)c1CNC(=O)c1ccnc(Cc2cnc3ncc(Cl)cc3c2)c1 [Example 204, N-((6-amino-2,4-dimethylpyridin-3-yl)methyl)-2-((6-chloro-1,8-naphthyridin-3-yl)methyl)isonicotinamide]
100 to 1000 nM | 100 to 1000 nM | Cc1cc(N)nc(C)c1CNC(=O)c1ccnc(C(C)(O)c2ccc3ncc(Cl)cc3c2)c1 (centres unmarked) [Example 277, N-((6-amino-2,4-dimethylpyridin-3-yl)methyl)-2-(1-(3-chloroquinolin-6-yl)-1-hydroxyethyl)isonicotinamide]
< 100 nM | < 100 nM | Cc1cc(CN)nc(C)c1CNC(=O)c1ccnc(Cc2ccc3ncc(C(F)(F)F)cc3c2)c1 [Example 172, N-((6-(aminomethyl)-2,4-dimethylpyridin-3-yl)methyl)-2-((3-(trifluoromethyl)quinolin-6-yl)methyl)isonicotinamide]
< 100 nM | < 100 nM | Cc1c(CNC(=O)c2ccnc(Cc3ccc4ncc(C(F)(F)F)cc4c3)c2)ccc2c(N)nccc12 [Example 184, N-((1-amino-5-methylisoquinolin-6-yl)methyl)-2-((3-(trifluoromethyl)quinolin-6-yl)methyl)isonicotinamide]
< 100 nM | < 100 nM | Cc1cc(N)nc(C)c1CNC(=O)c1ccnc(Cc2cc(C(C)(C)O)c3ncc(Cl)cc3c2)c1 [Example 219, N-((6-amino-2,4-dimethylpyridin-3-yl)methyl)-2-((3-chloro-8-(2-hydroxypropan-2-yl)quinolin-6-yl)methyl)isonicotinamide]
< 100 nM | < 100 nM | Cc1nc(N)ccc1CNC(=O)c1ccnc(Cc2cc(S(N)(=O)=O)c3ncc(Cl)cc3c2)c1 [Example 236]
< 100 nM | < 100 nM | COc1cnc2ccc(Cc3cc(C(=O)NCc4c(C)cc(N)nc4C)ccn3)cc2c1 [Example 264, N-((6-amino-2,4-dimethylpyridin-3-yl)methyl)-2-((3-methoxyquinolin-6-yl)methyl)isonicotinamide]
< 100 nM | < 100 nM | Cc1cc(N)nc(C)c1CNC(=O)c1ccnc(Cc2cc(S(N)(=O)=O)c3ncc(Cl)cc3c2)c1 [Example 235, N-((6-amino-2,4-dimethylpyridin-3-yl)methyl)-2-((3-chloro-8-sulfamoylquinolin-6-yl)methyl)isonicotinamide]
< 100 nM | 100 to 1000 nM | Cc1cnc2c(S(N)(=O)=O)cc(Cc3cc(C(=O)NCc4n[nH]c5ccc(Cl)cc45)ccn3)cc2c1 [Example 288, N-((5-chloro-1H-indazol-3-yl)methyl)-2-((3-methyl-8-sulfamoylquinolin-6-yl)methyl)isonicotinamide]
< 100 nM | < 100 nM | Cc1cnc2c(S(N)(=O)=O)cc(Cc3cc(C(=O)NCc4cc5c(Cl)c[nH]c5cc4F)ccn3)cc2c1 [Example 287, N-((3-chloro-6-fluoro-1H-indol-5-yl)methyl)-2-((3-methyl-8-sulfamoylquinolin-6-yl)methyl)isonicotinamide]
< 100 nM | < 100 nM | Cc1c(CNC(=O)c2ccnc(Cc3ccc4ncc(Cl)cc4c3)c2)ccc2c(N)nccc12 [Example 177, N-((1-amino-5-methylisoquinolin-6-yl)methyl)-2-((3-chloroquinolin-6-yl)methyl)isonicotinamide]
< 100 nM | < 100 nM | CCc1cnc2ccc(Cc3cc(C(=O)NCc4c(C)cc(N)nc4C)ccn3)cc2c1 [Example 286, N-((6-amino-2,4-dimethylpyridin-3-yl)methyl)-2-((3-ethylquinolin-6-yl)methyl)isonicotinamide]
